We go through 23 compounds from ChEMBL document CHEMBL5360568, “Synthesis and anti-Alzheimer potential of novel α-amino phosphonate derivatives and probing their molecular interaction mechanism with acetylcholinesterase” (Eur J Med Chem, 2023).

The term IC50 denotes the concentration that inhibits the measured activity by half.

The source made the active and inactive calls. The calls are words filed in the database; no cut-off is given here.

Series [1] has as its target Acetylcholinesterase (Electrophorus electricus, UniProt O42275). Put plainly: Inhibition of electric eel AChE using acetylthiocholine iodide as substrate preincubated for 5 mins followed by substrate addition by DTNB based Ellman's method.
Another series concerns the target Cholinesterase (Equus caballus, UniProt P81908). Kind of series: Inhibition of equine serum BuChE using butyrylthiocholine iodide as substrate preincubated for 5 mins followed by substrate addition by DTNB based Ellman's method. For orientation: In Ellman's method for cholinesterases, released thiocholine reacts with DTNB.
Series [2] is described as follows: Selectivity ratio, ratio of IC50 for inhibition of equine serum BuChE to IC50 for inhibition of electric eel AChE.
Series [3] can be described thus: Antioxidant activity assessed as ABTS radical scavenging activity incubated for 30 mins by spectrophotometric analysis. The format is functional.
The target in series [4] is T1, Acetylcholinesterase (Homo sapiens, UniProt P22303). Put plainly: Inhibition of human erythrocyte AChE using acetylthiocholine iodide as substrate preincubated for 5 mins followed by substrate addition by DTNB based Ellman's method.
The test system of series [5] is SK-N-SH. Kind of series: Neuroprotective activity against H2O2 induced oxidative cell damage in human SK-N-SH cells assessed as increase in cell viability at 90 uM preincubated for 3 hrs followed by H2O2 stimulation for 2 hrs by MTT assay (Rvb= 40%). The format is functional. For orientation: Tetrazolium dyes change colour on reduction, which living cells bring about.

Series [6] addresses Amyloid-beta precursor protein (Homo sapiens) (UniProt P05067). Put plainly: Modulation of amyloid beta (1 to 42) (unknown origin) self aggregation assessed as increase in fluorescence intensity at 0.03 to 0.1 uM incubated for 24 hrs by Thioflavin T fluorescence assay. Conditions: filed as modulator, dose 0.03-0.1 µM.
The target is the same in series [7]. Put plainly: Modulation of amyloid beta (1 to 42) (unknown origin) assembly assessed as morphological changes in amyloid beta (1 to 42) aggregates at 1 mM incubated for 3 days by FE-SEM image analysis relative to control. The conditions noted are these: filed as modulator, time 3.0 day.
In series [8] the target is T1, Acetylcholinesterase. Put plainly: Binding affinity to AChE (unknown origin) assessed as static fluorescence quenching at pH 7.2 at 0.001 to 0.009 mM incubated for 5 mins by Stern-Volmer quenching plot based fluorescence spectroscopy. Conditions: dose 0.001-0.009 mM.
The target of series [9] is T1, Acetylcholinesterase. Kind of series: Binding affinity to AChE (unknown origin) assessed as gibbs free energy change at temperature of 298 K at 0.001 to 0.009 mM incubated for 5 mins by fluorescence quenching analysis. Conditions: dose 0.001-0.009 mM.
A further series relates to Supercoiled DNA. Put plainly: Induction of supercoiled pBR322 plasmid DNA (unknown origin) cleavage assessed as DNA nicking at 10 uM incubated for 2 hrs by Agarose gel electrophoresis analysis. It counts as nucleic-acid assay.
In series [10] the test system is SK-N-SH. Kind of series: Neuroprotective activity against H2O2 induced oxidative cell damage in human SK-N-SH cells assessed as increase in cell viability at 30 to 60 uM preincubated for 3 hrs followed by H2O2 stimulation for 2 hrs by MTT assay (Rvb= 40%). The format is functional, cell-based. The conditions noted are these: dose 30-60 µM.
The target of series [11] is T1, Acetylcholinesterase. Kind of series: Binding affinity to AChE (unknown origin) assessed as reduction in intrinsic fluorescence intensity at pH 7.2 at 0.001 to 0.009 mM incubated for 5 mins by fluorescence quenching analysis. Conditions: dose 0.001-0.009 mM.
Series [12] is described as follows: Cytotoxicity against human SK-N-SH cells assessed as cell viability at 90 uM incubated for 24 hrs by MTT assay. It counts as toxicity, cell-based. Conditions: read-out: Activity.
The target of series [13] is T1, Acetylcholinesterase. Put plainly: Binding affinity to AChE (unknown origin) assessed as decrease in negative bands intensity towards the baseline at […] incubated for 5 mins by Circular dichroism analysis. Conditions: dose lower 0.001 nM. (Circular dichroism is widely used to follow secondary structure.)
The nature of series [14]: Cytotoxicity against human SK-N-SH cells assessed as cell viability at 30 to 60 uM incubated for 24 hrs by MTT assay. It counts as toxicity, cell-based. The conditions noted are these: dose 30-60 µM, read-out: Activity.
A further series concerns DNA. Put plainly: Induction of pBR322 plasmid DNA (unknown origin) damage assessed as protection against Fenton's reagent induced DNA (unknown origin) damage by observing disappearance of band at 20 to 80 uM incubated for 30 mins by Agarose gel electrophoresis analysis. It counts as nucleic-acid assay. The conditions noted are these: dose 20-80 µM.

T1 sequence (P22303 whole entry): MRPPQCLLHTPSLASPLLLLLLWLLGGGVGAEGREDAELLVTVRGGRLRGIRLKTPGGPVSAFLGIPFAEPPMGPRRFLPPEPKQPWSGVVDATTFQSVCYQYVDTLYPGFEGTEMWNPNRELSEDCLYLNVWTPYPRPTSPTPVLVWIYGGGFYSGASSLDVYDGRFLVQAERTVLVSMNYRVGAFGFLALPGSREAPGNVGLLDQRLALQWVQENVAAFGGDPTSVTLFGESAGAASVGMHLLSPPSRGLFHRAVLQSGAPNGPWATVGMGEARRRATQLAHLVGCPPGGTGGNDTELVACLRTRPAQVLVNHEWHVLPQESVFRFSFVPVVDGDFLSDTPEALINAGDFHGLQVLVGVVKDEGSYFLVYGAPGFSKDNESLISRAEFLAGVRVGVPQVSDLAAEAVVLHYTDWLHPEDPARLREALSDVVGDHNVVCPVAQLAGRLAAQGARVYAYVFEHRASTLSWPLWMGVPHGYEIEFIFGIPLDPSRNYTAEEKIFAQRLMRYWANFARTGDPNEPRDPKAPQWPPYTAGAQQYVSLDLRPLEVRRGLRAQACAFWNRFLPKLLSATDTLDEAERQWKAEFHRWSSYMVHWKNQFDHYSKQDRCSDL
Chain of Acetylcholinesterase (Electrophorus electricus, UniProt O42275) (O42275 whole entry): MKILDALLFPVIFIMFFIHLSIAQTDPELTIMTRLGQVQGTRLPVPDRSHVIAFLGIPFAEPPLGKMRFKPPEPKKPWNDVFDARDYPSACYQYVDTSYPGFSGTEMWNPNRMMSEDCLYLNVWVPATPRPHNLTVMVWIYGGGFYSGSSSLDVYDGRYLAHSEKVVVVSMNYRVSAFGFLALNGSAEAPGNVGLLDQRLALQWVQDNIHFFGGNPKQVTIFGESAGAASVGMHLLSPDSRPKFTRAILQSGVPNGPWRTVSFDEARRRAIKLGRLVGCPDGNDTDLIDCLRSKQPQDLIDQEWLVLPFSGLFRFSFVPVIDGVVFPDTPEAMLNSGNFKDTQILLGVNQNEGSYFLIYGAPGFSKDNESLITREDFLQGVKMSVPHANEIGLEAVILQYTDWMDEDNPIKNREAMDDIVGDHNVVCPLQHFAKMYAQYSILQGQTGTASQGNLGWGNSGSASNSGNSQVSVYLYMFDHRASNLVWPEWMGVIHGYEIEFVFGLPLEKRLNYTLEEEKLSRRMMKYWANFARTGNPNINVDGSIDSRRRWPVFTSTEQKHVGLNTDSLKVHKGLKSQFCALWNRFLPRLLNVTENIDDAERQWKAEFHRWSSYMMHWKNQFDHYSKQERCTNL
Chain of Amyloid-beta precursor protein (Homo sapiens) (P05067 whole entry): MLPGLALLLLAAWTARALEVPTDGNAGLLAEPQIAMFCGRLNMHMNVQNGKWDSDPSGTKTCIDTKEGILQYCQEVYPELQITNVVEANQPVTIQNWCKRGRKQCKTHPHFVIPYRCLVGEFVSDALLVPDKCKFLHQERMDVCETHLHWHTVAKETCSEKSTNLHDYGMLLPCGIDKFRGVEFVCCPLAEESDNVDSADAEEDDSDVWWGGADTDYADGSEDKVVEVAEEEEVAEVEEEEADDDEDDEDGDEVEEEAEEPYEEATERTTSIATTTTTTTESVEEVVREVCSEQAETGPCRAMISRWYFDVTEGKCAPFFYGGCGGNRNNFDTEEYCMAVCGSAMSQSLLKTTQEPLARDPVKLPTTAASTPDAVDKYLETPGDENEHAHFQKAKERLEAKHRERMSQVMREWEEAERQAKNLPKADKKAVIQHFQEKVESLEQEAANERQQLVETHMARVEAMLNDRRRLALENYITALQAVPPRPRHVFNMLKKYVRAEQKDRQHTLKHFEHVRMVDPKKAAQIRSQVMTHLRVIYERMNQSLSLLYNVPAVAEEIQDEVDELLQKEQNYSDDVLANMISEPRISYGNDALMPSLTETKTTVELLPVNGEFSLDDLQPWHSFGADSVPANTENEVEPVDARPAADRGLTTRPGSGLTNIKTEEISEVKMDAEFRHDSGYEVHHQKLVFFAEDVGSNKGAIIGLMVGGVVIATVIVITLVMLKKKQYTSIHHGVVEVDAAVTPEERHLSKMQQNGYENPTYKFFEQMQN
Chain of Cholinesterase (P81908 whole entry): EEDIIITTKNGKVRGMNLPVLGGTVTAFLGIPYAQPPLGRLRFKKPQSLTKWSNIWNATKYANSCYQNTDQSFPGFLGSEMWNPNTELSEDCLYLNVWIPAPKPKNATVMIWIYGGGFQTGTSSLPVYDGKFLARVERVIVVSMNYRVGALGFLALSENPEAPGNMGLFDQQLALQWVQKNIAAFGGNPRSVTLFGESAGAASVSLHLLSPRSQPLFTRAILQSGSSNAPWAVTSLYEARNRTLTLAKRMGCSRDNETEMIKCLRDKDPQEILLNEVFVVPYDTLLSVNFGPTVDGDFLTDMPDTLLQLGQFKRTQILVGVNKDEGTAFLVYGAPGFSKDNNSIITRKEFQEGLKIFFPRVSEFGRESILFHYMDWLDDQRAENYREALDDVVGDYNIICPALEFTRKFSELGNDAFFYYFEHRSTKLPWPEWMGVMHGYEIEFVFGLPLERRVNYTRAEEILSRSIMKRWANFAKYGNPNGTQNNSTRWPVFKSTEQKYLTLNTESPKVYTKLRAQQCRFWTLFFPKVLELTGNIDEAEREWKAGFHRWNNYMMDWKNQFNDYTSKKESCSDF

With `CCOP(=O)(OCC)C(Nc1ccc(F)cc1)c1ccc(OCc2nc3ccccc3c(=O)n2-c2ccc(F)cc2)c(OC)c1` (configuration not stated), the IC50 on Acetylcholinesterase [1] is 805 nM; at Cholinesterase, 35.4 µM; in series [3] it was over 50 µM. For the same compound, the Ratio IC50 in series [2] is 43.9.

Turning to `CCOP(=O)(OCC)C(Nc1ccccc1CC)c1ccc(OCc2nc3ccccc3c(=O)n2-c2ccc(F)cc2)c(OC)c1` (configuration not stated), the results for the IC50 (at Acetylcholinesterase [1]; against Cholinesterase; in [3]) were 532 nM, 29.6 µM and over 50 µM, respectively. Further, in series [2], the Ratio IC50 is 55.7.

For the compound `CCOP(=O)(OCC)C(Nc1ccccc1C(F)(F)F)c1ccc(OCc2nc3ccccc3c(=O)n2-c2ccc(F)cc2)c(OC)c1` (configuration not stated), the IC50 was 341 nM on Acetylcholinesterase [1], over 100 µM on Cholinesterase, 36.5 µM in series [3] and 4.93 µM against Acetylcholinesterase [4].

Turning to `CCOP(=O)(OCC)C(Nc1ccccc1OC)c1ccc(OCc2nc3ccccc3c(=O)n2-c2ccc(F)cc2)c(OC)c1` (configuration not stated), the figures for the Activity with SK-N-SH [5], at Acetylcholinesterase [11] and on Acetylcholinesterase [13] were 65%, “Dose-Dependent Effect” and “Dose-Dependent Effect”, respectively. In addition, the IC50 on Acetylcholinesterase [1] came out at 296 nM; at Cholinesterase, 10.6 µM; in series [3] it was 28.8 µM; at Acetylcholinesterase [4] it was 2.65 µM. Also, the outcome (in [6]; in [7]; on Acetylcholinesterase [8]; in the series with SK-N-SH [10]) was Active. Also, at Acetylcholinesterase [9], the deltaG is -6.88 kcal/mol. Further, in the series with Supercoiled DNA, the result was inactive. Further, the viability at 24 h, 90 µM in [12] turned out to be 85%. For the same compound, the viability at 24 h, up to 60 µM in [14] is over 90%.

On to `CCOP(=O)(OCC)C(Nc1ccccc1Br)c1ccc(OCc2nc3ccccc3c(=O)n2-c2ccc(F)cc2)c(OC)c1` (configuration not stated), for which the IC50 is 473 nM against Acetylcholinesterase [1], over 100 µM on Cholinesterase and over 50 µM in [3].

Regarding `CCOP(=O)(OCC)C(Nc1ccc([N+](=O)[O-])cc1)c1ccc(OCc2nc3ccccc3c(=O)n2-c2ccc(F)cc2)c(OC)c1` (configuration not stated), the IC50 was 315 nM at Acetylcholinesterase [1], over 100 µM on Cholinesterase, 28 µM in series [3] and 1.78 µM at Acetylcholinesterase [4].

As to `CCOP(=O)(OCC)C(Nc1cccc(Cl)c1Cl)c1ccc(OCc2nc3ccccc3c(=O)n2-c2ccc(F)cc2)c(OC)c1` (configuration not stated), the Activity with SK-N-SH [5] was 65%; at Acetylcholinesterase [11] it was “Dose-Dependent Effect”; at Acetylcholinesterase [13] it was “Dose-Dependent Effect”. Moreover, the outcome (with DNA; in [6]; in series [7]; on Acetylcholinesterase [8]; with Supercoiled DNA; with SK-N-SH [10]) was Active. The IC50 was 306 nM at Acetylcholinesterase [1], 23.3 µM against Cholinesterase, 29.3 µM in series [3] and 2.55 µM against Acetylcholinesterase [4]. The Ratio IC50 in series [2] came out at 76. Further, the deltaG at Acetylcholinesterase [9] is -6.94 kcal/mol. Moreover, the viability at 24 h, 90 µM in series [12] turned out to be 85%. For the same compound, in series [14], the viability at 24 h, up to 60 µM is over 90%.

Take `CCOP(=O)(OCC)C(Nc1ccc(Br)cc1)c1ccc(OCc2nc3ccccc3c(=O)n2-c2ccc(F)cc2)c(OC)c1` (configuration not stated): the IC50 is 487 nM on Acetylcholinesterase [1], over 100 µM against Cholinesterase and over 50 µM in series [3].

`CCOP(=O)(OCC)C(Nc1cccc(O)c1)c1ccc(OCc2nc3ccccc3c(=O)n2-c2ccc(F)cc2)c(OC)c1` (configuration not stated): the IC50 against Acetylcholinesterase [1] is 369 nM; against Cholinesterase, over 100 µM; in series [3], 35.8 µM; against Acetylcholinesterase [4] it was 4.34 µM.

Turning to `CCOP(=O)(OCC)C(Nc1ccccc1C(C)=O)c1ccc(OCc2nc3ccccc3c(=O)n2-c2ccc(F)cc2)c(OC)c1` (configuration not stated), the IC50 amounted to 378 nM on Acetylcholinesterase [1], 12.1 µM on Cholinesterase, 50 µM in [3] and 5.62 µM at Acetylcholinesterase [4]. The Ratio IC50 in series [2] was found to be 31.9.

With `CCOP(=O)(OCC)C(Nc1nncs1)c1ccc(OCc2nc3ccccc3c(=O)n2-c2ccc(F)cc2)c(OC)c1` (configuration not stated), the IC50 against Acetylcholinesterase [1] was 361 nM; against Cholinesterase, over 100 µM; in [3], over 50 µM; against Acetylcholinesterase [4], 3.37 µM.

Turning to `CCOP(=O)(OCC)C(Nc1c(C)cccc1C)c1ccc(OCc2nc3ccccc3c(=O)n2-c2ccc(F)cc2)c(OC)c1` (configuration not stated), the IC50 was 353 nM against Acetylcholinesterase [1], over 100 µM against Cholinesterase, over 50 µM in [3] and 3.02 µM on Acetylcholinesterase [4].

With `CCOP(=O)(OCC)C(Nc1ccccc1O)c1ccc(OCc2nc3ccccc3c(=O)n2-c2ccc(F)cc2)c(OC)c1` (configuration not stated), the IC50 is 558 nM at Acetylcholinesterase [1], over 100 µM against Cholinesterase and 41.2 µM in [3].

In the case of `CCOP(=O)(OCC)C(Nc1ccc(OC)cc1)c1ccc(OCc2nc3ccccc3c(=O)n2-c2ccc(F)cc2)c(OC)c1` (configuration not stated), the IC50 against Acetylcholinesterase [1] is 431 nM; against Cholinesterase, over 100 µM; in series [3] it was 29 µM.

In the case of `CCOP(=O)(OCC)C(Nc1ccc(Cl)cc1)c1ccc(OCc2nc3ccccc3c(=O)n2-c2ccc(F)cc2)c(OC)c1` (configuration not stated), the IC50 against Acetylcholinesterase [1] was 639 nM; on Cholinesterase it was over 100 µM; in series [3], 33.2 µM.

In the case of `CCOP(=O)(OCC)C(Nc1ccccc1C#N)c1ccc(OCc2nc3ccccc3c(=O)n2-c2ccc(F)cc2)c(OC)c1` (configuration not stated), the IC50 is 322 nM against Acetylcholinesterase [1], 11 µM on Cholinesterase, 39.4 µM in series [3] and 2.94 µM at Acetylcholinesterase [4]. In addition, the Ratio IC50 in [2] worked out at 34.2.

Take `Cc1c(C)c2c(c(C)c1O)CCC(C)(C(=O)O)O2` (configuration not stated) [TROLOX]: in series [3], the IC50 was 25.1 µM.

For `CCOP(=O)(OCC)C(Nc1cc(C)cc(C)c1)c1ccc(OCc2nc3ccccc3c(=O)n2-c2ccc(F)cc2)c(OC)c1` (configuration not stated), the IC50 is 465 nM on Acetylcholinesterase [1], 26.4 µM on Cholinesterase and 46.2 µM in series [3]. Besides, the Ratio IC50 in series [2] stood at 56.8.

Take `CCOP(=O)(OCC)C(Nc1cc(C)ccc1C)c1ccc(OCc2nc3ccccc3c(=O)n2-c2ccc(F)cc2)c(OC)c1` (configuration not stated): the IC50 was 414 nM on Acetylcholinesterase [1], 18.7 µM against Cholinesterase, over 50 µM in series [3] and 6.05 µM at Acetylcholinesterase [4]. Also, the Ratio IC50 in [2] was determined as 45.1.

Take `CCOP(=O)(OCC)C(Nc1ccccc1)c1ccc(OCc2nc3ccccc3c(=O)n2-c2ccc(F)cc2)c(OC)c1` (configuration not stated): the IC50 against Acetylcholinesterase [1] was 921 nM; against Cholinesterase, over 100 µM; in series [3], over 50 µM.

For `COc1ccc2c3c1O[C@H]1C[C@@H](O)C=C[C@@]31CCN(C)C2`, the Activity entry in series [6] is “Dose-Dependent Effect”.

On to `CCOP(=O)(OCC)C(Nc1ccccc1C)c1ccc(OCc2nc3ccccc3c(=O)n2-c2ccc(F)cc2)c(OC)c1` (configuration not stated), for which the concentration for half-maximal inhibition (IC50) was 393 nM on Acetylcholinesterase [1], 33.8 µM at Cholinesterase, over 50 µM in [3] and 5.35 µM at Acetylcholinesterase [4]. Moreover, the Ratio IC50 in [2] came out at 86.

Regarding `CCOP(=O)(OCC)C(Nc1ccc(C)cc1)c1ccc(OCc2nc3ccccc3c(=O)n2-c2ccc(F)cc2)c(OC)c1` (configuration not stated), the IC50 against Acetylcholinesterase [1] is 669 nM; against Cholinesterase, over 100 µM; in series [3], 39.3 µM.
